Common to all, as to type: biochemical
One test addresses T1, CDK2/CycE (Homo sapiens, UniProt P24941).
T1 construct: GST; purchased ProQinase GmbH (Freiburg, Germany); host or cells: insect cells (Sf9)
As to the kind of experiment: CDK2 HTRF Assay (assay 4). The conditions noted are these: 10 μM ATP, pIC50 = −log IC50 in molar concentration. The source says:
CDK2/CycE-inhibitory activity of compounds of the present invention was quantified employing the CDK2/CycE HTRF assay as described in the following paragraphs.
Recombinant fusion proteins of GST and human CDK2 and of GST and human CycE, expressed in insect cells (Sf9) and purified by Glutathion-Sepharose affinity chromatography, were purchase from ProQinase GmbH (Freiburg, Germany). As substrate for the kinase reaction biotinylated peptide biotin-Ttds-YISPLKSPYKISEG (C-terminus in amid form) was used which can be purchased e.g. form the company JERINI peptide technologies (Berlin, Germany).
CDK2/CycE was incubated for 60 min at 22° C. in the presence of different concentrations of test compounds in 5 μl assay buffer [50 mM Tris/HCl pH 8.0, 10 mM MgCl2, 1.0 mM dithiothreitol, 0.1 mM sodium ortho-vanadate, 10 μM adenosine-tri-phosphate (ATP), 0.75 μM substrate, 0.01% (v/v) Nonidet-P40 (Sigma), 1% (v/v) dimethylsulfoxide]. The concentration of CDK2/CycE was adjusted depending of the activity of the enzyme lot and was chosen appropriate to have the assay in the linear range, typical concentrations were in the range of 1 ng/ml. The reaction was stopped by the addition of 5 μl of a solution of HTRF detection reagents (0.2 μM streptavidine-XLent and 3.4 nM Phospho-(Ser) CDKs Substrate Antibody [product #2324B, Cell Signalling Technology, Danvers, Mass., USA} and 4 nM Prot-A-EuK [Protein A labeled with Europium Cryptate from Cis biointernational, France, product no. 61PRAKLB]) in an aqueous EDTA-solution (100 mM EDTA, 800 mM KF, 0.2% (w/v) bovine serum albumin in 100 mM HEPES/NaOH pH 7.0).

The target of a further test is T2, Tie2 (Homo sapiens, UniProt Q02763).
T2 construct: A recombinant fusion protein of GST and the intracellular domains of Tie2; GST; made in house; host or cells: insect cells (Hi-5)
T2 sequence (Q02763 770-1124 limits assumed): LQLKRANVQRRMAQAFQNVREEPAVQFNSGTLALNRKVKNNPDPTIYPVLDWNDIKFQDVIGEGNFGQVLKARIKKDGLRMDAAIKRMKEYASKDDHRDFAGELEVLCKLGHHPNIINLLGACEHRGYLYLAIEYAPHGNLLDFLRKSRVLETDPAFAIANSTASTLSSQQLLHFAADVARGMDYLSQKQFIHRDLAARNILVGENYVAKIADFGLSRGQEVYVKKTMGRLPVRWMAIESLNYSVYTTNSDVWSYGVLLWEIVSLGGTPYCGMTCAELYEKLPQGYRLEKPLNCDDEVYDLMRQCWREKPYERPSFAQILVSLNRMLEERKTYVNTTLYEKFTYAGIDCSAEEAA
As to the kind of experiment: Tie2-Kinase HTRF-Assay without kinase preactivation (assay 2). The following applies: 10 μM ATP, pIC50 = −log IC50 in molar concentration, read-out: Tie 2 activity (assay 2). The source says:
Tie2-inhibitory activity of compounds of the present invention was quantified employing two Tie2 HTRF assay as described in the following paragraphs.
A recombinant fusion protein of GST and the intracellular domains of Tie2, expressed in insect cells (Hi-5) and purified by Glutathion-Sepharose affinity chromatography was used as kinase. Alternatively, commercially available GST-Tie2-fusion protein (Upstate Biotechnology, Dundee, Scotland) can be used as substrate for the kinase reaction the biotinylated peptide biotin-Ahx-EPKDDAYPLYSDFG (C-terminus in amid form) was used which can be purchased e.g. from the company Biosynthan GmbH (Berlin-Buch, Germany). Detection of phosphorylated product is achieved specifically by a trimeric detection complex consisting of the phosphorylated substrate, streptavidin-XLent (SA-XLent) which binds to biotin, and Europium Cryptate-labeled anti-phosphotyrosine antibody PT66 which binds to phosphorylated tyrosine.
Tie2 (3.5 ng/measurement point) was incubated for 60 min at 22° C. in the presence of 10 μM adenosine-tri-phosphate (ATP) and 1 μM substrate peptide (biotin-Ahx-EPKDDAYPLYSDFG-NH2) with different concentrations of test compounds (0 μM and concentrations in the range 0.001-20 μM) in 5 μl assay buffer [50 mM Hepes/NaOH pH 7, 10 mM MgCl2, 0.5 mM MnCl2, 1.0 mM dithiothreitol, 0.01% NP40, protease inhibitor mixture (“Complete w/o EDTA” from Roche, 1 tablet per 2.5 ml), 1% (v/v) dimethylsulfoxide]. The reaction was stopped by the addition of 5 μl of an aqueous buffer (25 mM Hepes/NaOH pH 7.5, 0.28% (w/v) bovine serum albumin) containing EDTA (90 mM) and the HTRF (Homogeneous Time Resolved Fluorescence) detection reagents streptavidine-XLent (0.2 μM, from Cis Biointernational, Marcoule, France) and PT66-Eu-Chelate (0.3 ng/μl; a europium-chelate labelled anti-phospho-tyrosine antibody from Perkin Elmer).
(§1) The resulting mixture was incubated 1 h at 22° C. to allow the binding of the biotinylated phosphorylated peptide to the streptavidine-XLent and the PT66-Eu-Chelate. Subsequently the amount of phosphorylated substrate peptide was evaluated by measurement of the resonance energy transfer from the PT66-Eu-Chelate to the streptavidine-XLent. Therefore, the fluorescence emissions at 620 nm and 665 nm after excitation at 350 nm was measured in a HTRF reader, e.g. a Rubystar (BMG Labtechnologies, Offenburg, Germany) or a Viewlux (Perkin-Elmer). The ratio of the emissions at 665 nm and at […] was taken as the measure for the amount of phosphorylated substrate peptide. The data were normalised (enzyme reaction without inhibitor=0% inhibition, all other assay components but no enzyme=100% inhibition) and IC50 values were calculated by a 4 parameter fit using an inhouse software.

Another test deals with T3, preactivated Tie2 (Homo sapiens, UniProt Q02763).
T3 construct: A recombinant fusion protein of GST and the intracellular domains of Tie2; GST; made in house; host or cells: insect cells (Hi-5)
T3 sequence (Q02763 770-1124 limits assumed): as above
As to the kind of experiment: Tie2-Kinase HTRF-Assay with kinase preactivation (assay 3). The conditions noted are these: 10 μM ATP, pIC50 = −log IC50 in molar concentration, read-out: Tie 2 activity (assay 3). Here is the method: Assay 3: Tie2-Kinase HTRF-Assay with Kinase Preactivation
A recombinant fusion protein of GST and the intracellular domains of Tie2, expressed in insect cells (Hi-5) and purified by Glutathion-Sepharose affinity chromatography was used as kinase. As substrate for the kinase reaction the biotinylated peptide biotin-Ahx-EPKDDAYPLYSDFG (C-terminus in amid form) was used which can be purchased e.g. from the company Biosynthan GmbH (Berlin-Buch, Germany).
For activation, Tie2 was incubated at a conc. 12.5 ng/μl of for 20 min at 22° C. in the presence of 250 μM adenosine-tri-phosphate (ATP) in assay buffer [50 mM Hepes/NaOH pH 7, 10 mM MgCl2, 0.5 mM MnCl2, 1.0 mM dithiothreitol, 0.01% NP40, protease inhibitor mixture (“Complete w/o EDTA” from Roche, 1 tablet per 2.5 ml)].
For the subsequent kinase reaction, the preactivated Tie2 (0.5 ng/measurement point) was incubated for 20 min at 22° C. in the presence of 10 μM adenosine-tri-phosphate (ATP) and 1 μM substrate peptide (biotin-Ahx-EPKDDAYPLYSDFG-NH2) with different concentrations of test compounds (0 μM and concentrations in the range 0.001-20 μM) in 5 μl assay buffer [50 mM Hepes/NaOH pH 7, 10 mM MgCl2, 0.5 mM MnCl2, 0.1 mM sodium ortho-vanadate, 1.0 mM dithiothreitol, 0.01% NP40, protease inhibitor mixture (“Complete w/o EDTA” from Roche, 1 tablet per 2.5 ml), 1% (v/v) dimethylsulfoxide]. The reaction was stopped by the addition of 5 μl of an aqueous buffer (25 mM Hepes/NaOH pH 7.5, 0.28% (w/v) bovine serum albumin) containing EDTA (90 mM) and the HTRF (Homogeneous Time Resolved Fluorescence) detection reagents streptavidine-XLent (0.2 μM, from Cis Biointernational, Marcoule, France) and PT66-Eu-Chelate (0.3 ng/μl; a europium-chelate labelled anti-phospho-tyrosine antibody from Perkin Elmer).
as §1
(TR-FRET usually uses a lanthanide donor and a delayed reading to cut background.)

Some results are limits rather than exact numbers.

`CCOC(=O)N=S(C)(=O)c1cccc(Nc2ncc(-c3ccc(NC(=O)Nc4cc(C(F)(F)F)ccc4F)c(F)c3)c(NCCN3CCOCC3)n2)c1` (racemic) [Example 29, 1-{4-[2-({3-[(RS)-N-(Ethoxycarbonyl)-S-methylsulfonimidoyl]phenyl}amino)-4-{[2-(morpholin-4-yl)ethyl]amino}pyri-midin-5-yl]-2-fluorophenyl}-3-[2-fluoro-5-(trifluoromethyl)-phenyl]urea]: the IC50 against CDK2/CycE is over 10000 nM; at Tie2, under 100 nM.
As to `COc1nc(Nc2cccc(S(C)(=N)=O)c2)ncc1-c1ccc(NS(=O)(=O)c2cccc(Cl)c2Cl)c(F)c1` (racemic) [Example 46, 2,3-Dichloro-N-[2-fluoro-4-(4-methoxy-2-{[3-(RS)-(S-methylsulfonimidoyl)phenyl]amino}pyrimi-din-5-yl)phenyl]benzenesul-fonamide], the IC50 against CDK2/CycE was over 10000 nM; at preactivated Tie2, 100 to 1000 nM; on Tie2, 100 to 1000 nM.
For `C[C@H](CO)Nc1nc(Nc2cccc(S(C)(=N)=O)c2)ncc1-c1ccc(NC(=O)Nc2cccc(C(F)(F)F)c2)cc1` (mixture of isomers) [Example 39, 1-[4-(4-{[(R)-2-Hydroxy-1-methylethyl]amino}-2-{[3-(RS)-(S-methylsulfonimidoyl)phenyl]amino}-pyrimidin-5-yl)phenyl]-3-[3-(trifluoromethyl)-phenyl]urea], the IC50 is over 10000 nM against CDK2/CycE and under 100 nM on Tie2.
On to `CCOC(=O)N=S(C)(=O)c1ccc(Nc2ncc(-c3ccc(NC(=O)Nc4ccccc4)cc3)c(N[C@H](C)CO)n2)cc1` (mixture of isomers) [Example 6, 1-{4-[2-({4-[(RS)-N-(Ethoxycarbonyl)-S-methylsulfonimidoyl]phenyl}amino)-4-{[(R)-2-hydroxy-1-methylethyl]amino}-pyrimidin-5-yl]-phenyl}-3-[phenyl]urea], for which the figures for the IC50 at CDK2/CycE and on Tie2 were over 10000 nM and 100 to 1000 nM, respectively.
The matching figures for `CCOC(=O)N=S(C)(=O)c1cccc(Nc2ncc(-c3ccc(NC(=O)Nc4cccc(C(F)(F)F)c4)cc3)c(N[C@H](C)CO)n2)c1` (mixture of isomers) [Example 10, 1-{4-[2-({3-[(RS)-N-(Ethoxycarbonyl)-S-methylsulfonimidoyl]phenyl}amino)-4-{[(R)-2-hydroxy-1-methylethyl]amino}-pyrimidin-5-yl]-phenyl}-3-[3-(trifluoromethyl)-phenyl]urea]: over 10000 nM and 100 to 1000 nM.
`CSc1nc(Nc2cccc(S(C)(=N)=O)c2)ncc1-c1ccc(NC(=O)Nc2cc(C(F)(F)F)ccc2F)c(F)c1` (racemic) [Example 44, 1-{2-Fluoro-4-[2-{[3-(RS)-(S-methylsulfonimidoyl)phenyl]amino}-4-(methylthio)-pyrimidin-5-yl]phenyl}-3-[2-fluoro-5-(trifluoromethyl)-phenyl]urea]: the IC50 is over 10000 nM at CDK2/CycE and under 100 nM on Tie2.
Consider `CCOC(=O)N=S(C)(=O)c1cccc(Nc2ncc(-c3ccc(NC(=O)Nc4cc(C(F)(F)F)ccc4F)c(F)c3)c(SC)n2)c1` (racemic) [Example 17, 1-{4-[2-({3-[(RS)-N-(Ethoxycarbonyl)-S-methylsulfonimidoyl]phenyl}amino)-4-(methylsulfanyl)pyrimidin-5-yl]-2-fluorophenyl}-3-[2-fluoro-5-(trifluoromethyl)phenyl]urea], for which the IC50 against CDK2/CycE is over 10000 nM; on Tie2, under 100 nM.
As for `CS(=N)(=O)c1cccc(Nc2ncc(-c3ccc(NC(=O)Nc4cc(C(F)(F)F)ccc4F)c(F)c3)c(NCCc3ccccc3)n2)c1` (racemic) [Example 48, 1-[2-Fluoro-4-(2-{[3-(RS)-(S-methylsulfonimidoyl)phenyl]amino}-4-[(2-phenylethyl)amino]-pyrimidin-5-yl)phenyl]-3-[2-fluoro-5-(trifluoromethyl)-phenyl]urea], the IC50 against CDK2/CycE was over 10000 nM; on Tie2, 100 to 1000 nM.
In the same order, the values of `CCOC(=O)N=S(C)(=O)c1ccc(Nc2ncc(-c3ccc(NC(=O)C4(c5ccccc5)CC4)cc3)c(N[C@H](C)CO)n2)cc1` (mixture of isomers) [Example 1, N-{4-[2-({4-[(RS)-N-(Ethoxycarbonyl)-S-methylsulfonimidoyl]phenyl}amino)-4-{[(R)-2-hydroxy-1-methylethyl]amino}-pyrimidin-5-yl]phenyl}-1-phenylcyclopropanecarboxamide] are over 10000 nM and 100 to 1000 nM.
For the compound `CC(C)NC(=O)N=S(C)(=O)c1cccc(Nc2ncc(-c3ccc(NC(=O)Nc4cccc(C(F)(F)F)c4)cc3)c(N[C@H](C)CO)n2)c1` (mixture of isomers) [Example 14, 1-{4-[4-{[(R)-2-hydroxy-1-methylethyl]amino}-2-({3-[(RS)-N-(isopropylcarbamoyl) -S-methylsulfonimidoyl]phenyl}amino)-pyrimidin-5-yl]phenyl}-3-[3-(trifluoromethyl)-phenyl]urea], the IC50 is over 10000 nM against CDK2/CycE and 100 to 1000 nM on Tie2.
In the case of `C[C@H](CO)Nc1nc(Nc2ccc(S(C)(=N)=O)cc2)ncc1-c1ccc(NS(=O)(=O)c2cccc(Cl)c2Cl)cc1` (mixture of isomers) [Example 24], the figures for the IC50 against CDK2/CycE and at Tie2 were over 10000 nM and 100 to 1000 nM, respectively.

For the origin of these results see patent US8003655B2, “Substituted sulphoximines as TIE2 inhibitors and salts thereof, pharmaceutical compositions comprising same, methods of preparing same and uses of same” (Bayer Schering Pharma AG, priority 2006, dated 2011).
